The values that follow come from US20110098269A1, “Substituted Pyridazinone Derivatives as Histamine-3 (H3) Receptor Ligands” (Cephalon, Inc., priority 2008, published 2011).

In data set [1] the target is T1, rat histamine H3 receptor (Rattus norvegicus, UniProt Q9QYN8).
T1 construct: encoding the entire 445-amino-acid rat histamine H3 receptor; expressed in transfected cells
Briefly: Rat H3 radioligand binding ([3H]-N-alpha-methylhistamine, CHO-A3 cell membranes). The conditions noted are these: Rat H3 binding constant, class symbols; read-out: rH3 Ki. From the text: Cell line development and membrane preparation. The rat H3 receptor cDNA was PCR amplified from reverse-transcribed RNA pooled from rat thalamus, hypothalamus, striatum and prefrontal cortex with a sequence corresponding to by #338-1672 of Genbank file #NM_053506, encoding the entire 445-amino-acid rat histamine H3 receptor. This was engineered into the pIRES-neo3 mammalian expression vector, which was stably transfected into the CHO-A3 cell line (Euroscreen, Belgium), followed by clonal selection by limiting dilution. Cells were harvested and cell pellets were frozen (−80° C.). Cell pellets were resuspended in 5 mM Tris-HCl, pH 7.5 with 5 nM EDTA and a cocktail of protease inhibitors (Complete Protease Inhibitor Tablets, Roche Diagnostics). Cells were disrupted using a polytron cell homogenizer and the suspension was centrifuged at 1000×g for 10 minutes at 4° C. The pellet was discarded and the supernatant centrifuged at 40,000×g for 30 min at 4° C. This membrane pellet was washed in membrane buffer containing 50 mM Tris-HCl, pH 7.5 with 0.6 mM EDTA, 5 mM MgCl2 and protease inhibitors, recentrifuged as above and the final pellet resuspended in membrane buffer plus 250 mM sucrose and frozen at −80° C.
(§1) Radioligand Binding. Membranes were resuspended in 50 mM Tris HCl (pH 7.4), 5 mM MgCl2, 0.1% BSA. The membrane suspensions (10 μg protein per well) were incubated in a 96 well microtiter plate with [^3H]-N-alpha-methylhistamine (approximately 1 nM final concentration), test compounds at various concentrations (0.01 nM-30 μM) and scintillation proximity beads (Perkin Elmer, FlashBlueGPCR Scintillating Beads) in a final volume of 80 μl for 4 hours at room temperature, protected from light. Non-specific binding was determined in the presence of 10 μM clobenpropit. Radioligand bound to receptor, and therefore in proximity to the scintillation beads, was measured using a MicroBeta scintillation counter.

The target of another data set is T2, human H3 receptor (Homo sapiens, UniProt Q9Y5N1).
T2 construct: expressed in transfected cells
Briefly: Human H3 radioligand binding ([3H]-N-alpha-methylhistamine, CHO cell membranes). The conditions noted are these: Human H3 binding constant, class symbols; read-out: hH3 Ki. The procedure:
Methods: CHO cells stably expressing the human H3 receptor (GenBank: NM_007232) were harvested and cell pellets were frozen (−80° C.). Cell pellets were resuspended in 5 mM Tris-HCl, pH 7.5 with 5 nM EDTA and a cocktail of protease inhibitors (Complete Protease Inhibitor Tablets, Roche Diagnostics). Cells were disrupted using a polytron cell homogenizer and the suspension was centrifuged at 1000×g for 10 minutes at 4° C. The pellet was discarded and the supernatant centrifuged at 40,000×g for 30 min at 4° C. This membrane pellet was washed in membrane buffer containing 50 mM Tris-HCl, pH 7.5 with 0.6 mM EDTA, 5 mM MgCl2 and protease inhibitors, recentrifuged as above and the final pellet resuspended in membrane buffer plus 250 mM sucrose and frozen at −80° C.
as §1

T2 sequence (Q9Y5N1 whole entry): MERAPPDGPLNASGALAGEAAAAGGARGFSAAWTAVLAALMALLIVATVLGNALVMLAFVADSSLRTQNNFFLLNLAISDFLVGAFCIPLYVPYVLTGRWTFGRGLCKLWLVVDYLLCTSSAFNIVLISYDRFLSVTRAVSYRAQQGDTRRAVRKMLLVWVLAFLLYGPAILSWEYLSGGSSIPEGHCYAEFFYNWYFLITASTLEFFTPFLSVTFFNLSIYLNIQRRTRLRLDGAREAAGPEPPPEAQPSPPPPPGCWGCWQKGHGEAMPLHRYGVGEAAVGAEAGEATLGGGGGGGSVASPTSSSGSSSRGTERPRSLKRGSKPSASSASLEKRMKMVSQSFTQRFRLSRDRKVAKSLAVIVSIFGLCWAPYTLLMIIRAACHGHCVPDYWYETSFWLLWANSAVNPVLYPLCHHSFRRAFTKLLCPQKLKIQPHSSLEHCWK
T1 sequence (Q9QYN8 whole entry): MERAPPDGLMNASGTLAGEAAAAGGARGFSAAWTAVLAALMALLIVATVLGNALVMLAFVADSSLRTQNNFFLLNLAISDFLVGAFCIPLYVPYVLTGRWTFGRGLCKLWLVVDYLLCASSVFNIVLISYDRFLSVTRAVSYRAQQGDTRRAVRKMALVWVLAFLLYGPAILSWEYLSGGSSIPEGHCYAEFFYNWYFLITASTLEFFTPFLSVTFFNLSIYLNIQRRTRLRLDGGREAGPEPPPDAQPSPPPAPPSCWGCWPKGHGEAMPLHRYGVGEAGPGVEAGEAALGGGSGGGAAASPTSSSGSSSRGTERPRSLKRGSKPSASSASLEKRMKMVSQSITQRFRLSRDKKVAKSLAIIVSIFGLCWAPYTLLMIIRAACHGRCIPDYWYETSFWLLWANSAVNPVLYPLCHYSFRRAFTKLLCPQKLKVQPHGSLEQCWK

In turn, `O=C1NN=C(c2ccc3c(c2)CCN(C2CCC2)CC3)C2CCCC12` (stereo not drawn) [Example 42, 4-(3-Cyclobutyl-2,3,4,5-tetrahydro-1H-benzo[d]azepin-7-yl)-2,4a,5,6,7,7a-hexahydro-cyclopenta[d]pyridazin-1-one] returned a melting point of 198 to 201 °C. The Ki in data set [1] was under 100 nM. On human H3 receptor, the Ki was under 100 nM.

On to `CS(=O)(=O)c1ccc(-n2nc(-c3ccc4c(c3)CCN(C3CCC3)CC4)ccc2=O)cc1` [Example 25, 6-(3-Cyclobutyl-2,3,4,5-tetrahydro-1H-benzo[d]azepin-7-yl)-2-(4-methanesulfonyl-phenyl)-2H-pyridazin-3-one], for which the melting point worked out at 225 °C. Besides, the Ki in data set [1] was in the range of 100 to 1000 nM. For the same compound, the Ki at human H3 receptor is under 100 nM.

As for `O=C1NN=C(c2ccc3c(c2)CCN(C2CCC2)CC3)C2CCCCC12` (stereo not drawn) [Example 44, 4-(3-Cyclobutyl-2,3,4,5-tetrahydro-1H-benzo[d]azepin-7-yl)-4-a,5,6,7,8,8a-hexahydro-2H-phthalazin-1-one], the melting point lay within 223 to 225 °C. Further, in data set [1], the Ki was under 100 nM. Further, the Ki on human H3 receptor was under 100 nM.

Regarding `CC(C)n1nc(-c2ccc(Oc3ccc4c(c3)CCN(C3CCC3)CC4)nc2)ccc1=O` [Example 29, 6-[6-(3-Cyclobutyl-2,3,4,5-tetrahydro-1H-benzo[d]azepin-7-yloxy)-pyridin-3-yl]-2-isopropyl-2H-pyridazin-3-one], the melting point was 70 to 73 °C. In data set [1], the Ki is under 100 nM. The Ki at human H3 receptor is under 100 nM.

As for `CC(C)N1CCN(C(=O)c2ccc(-c3ccc(=O)n(C)n3)cc2)CC1` [Example 47, 6-[4-(4-Isopropyl-piperazine-1-carbonyl)-phenyl]-2-methyl-2H-pyridazin-3-one], the melting point fell in the range of 131 to 132 °C. Besides, the Ki in data set [1] was in the range of 100 to 1000 nM. Also, the Ki at human H3 receptor was 100 to 1000 nM.

Regarding `CC(C)N1CCc2ccc(C3=NN(C(C)C)C(=O)CC3)cc2CC1` [Example 6, 2-Isopropyl-6-(3-isopropyl-2,3,4,5-tetrahydro-1H-benzo[d]azepin-7-yl)-4,5-dihydro-2H-pyridazin-3-one], the melting point was in the range of 125 to 126 °C. In data set [1], the Ki lay within 100 to 1000 nM. The Ki at human H3 receptor lay in the range of 100 to 1000 nM.

With `O=c1ccc(-c2ccc3c(c2)CCN(C2CCC2)CC3)nn1CC(F)(F)F` [Example 11, 6-(3-Cyclobutyl-2,3,4,5-tetrahydro-1H-benzo[d]azepin-7-yl)-2-(2,2,2-trifluoro-ethyl)-2H-pyridazin-3-one], the melting point lay in the range of 142 to 143 °C. In addition, in data set [1], the Ki is under 100 nM. Also, the Ki at human H3 receptor was under 100 nM.

`O=C1CCC(c2ccc3c(c2)CCN(C2CCC2)CC3)=NN1CCO` [Example 17, 6-(3-Cyclobutyl-2,3,4,5-tetrahydro-1H-benzo[d]azepin-7-yl)-2-(2-hydroxy-ethyl)-4,5-dihydro-2H-pyridazin-3-one] displayed a melting point of 141 to 142 °C. Also, in data set [1], the Ki was under 100 nM. On human H3 receptor, the Ki was under 100 nM.

The compound `O=C1CCC(c2ccc3c(c2)CCN(C2CCC2)CC3)=NN1` [Example 9, 6-(3-Cyclobutyl-2,3,4,5-tetrahydro-1H-benzo[d]azepin-7-yl)-4,5-dihydro-2H-pyridazin-3-one] registered a melting point of 178 to 179 °C. Further, in data set [1], the Ki is 100 to 1000 nM. On human H3 receptor, the Ki was under 100 nM.

Regarding `CC(C)N1N=C(c2ccc3c(c2)CCN(C2CCC2)CC3)CCC1=O` [Example 4, 6-(3-Cyclobutyl-2,3,4,5-tetrahydro-1H-benzo[d]azepin-7-yl)-2-isopropyl-4,5-dihydro-2H-pyridazin-3-one], the melting point lay in the range of 140 to 141 °C. Besides, in data set [1], the Ki lay in the range of 100 to 1000 nM. Also, the Ki at human H3 receptor is under 100 nM.

The compound `O=C(c1ccc(-c2ccc(=O)[nH]n2)cc1)N1CCC[C@H]1CN1CCCC1` [Example 50, 6-[4-((S)-2-Pyrrolidin-1-ylmethyl-pyrrolidine-1-carbonyl)-phenyl]-2H-pyridazin-3-one] had a melting point of 62 to 66 °C. For the same compound, the Ki in data set [1] was under 100 nM. For the same compound, the Ki at human H3 receptor is under 100 nM.

On to `O=C1CCC(c2ccc3c(c2)CCN(C2CCC2)CC3)=NN1C1CCC1` [Example 19, 2-Cyclobutyl-6-(3-cyclobutyl-2,3,4,5-tetrahydro-1H-benzo[d]azepin-7-yl)-4,5-dihydro-2H-pyridazin-3-one], for which the melting point is 126 to 128 °C. In data set [1], the Ki was in the range of 100 to 1000 nM. For the same compound, the Ki on human H3 receptor was under 100 nM.

Regarding `Cn1nc(-c2ccc(C(=O)N3CCN(C4CCCC4)CC3)cc2)ccc1=O` [Example 46, 6-[4-(4-Cyclopentyl-piperazine-1-carbonyl)-phenyl]-2-methyl-2H-pyridazin-3-one], the melting point lay within 177 to 179 °C. The Ki in data set [1] was 100 to 1000 nM. At human H3 receptor, the Ki lay in the range of 100 to 1000 nM.

The compound `C[C@@H]1CCCN1CCc1ccc(-c2ccc(=O)[nH]n2)cc1` [Example 51, 6-{4-[2-((R)-2-Methyl-pyrrolidin-1-yl)-ethyl]-phenyl}-2H-pyridazin-3-one] showed a melting point of 159 to 161 °C. Further, the Ki in data set [1] is under 100 nM. Further, the Ki at human H3 receptor is under 100 nM.
